How the values were obtained:
Rattus norvegicus = settings: for LOAEL: subchronic, duration: 90 days, clinical chemistry; for NOAEL: reproduction developmental
Apis mellifera = settings: acute, mortality
Colinus virginianus = settings: reproduction developmental
Coturnix japonica = settings: acute; oral; mortality
Danio rerio = settings: chronic; reproduction
Folsomia candida = settings: chronic/long-term; duration: 28 days; mortality
Pontoscolex corethrurus = settings: chronic/long-term
Hypoaspis aculeifer = settings: chronic/long-term; duration: 14 days; reproduction
Pleurozium sp. = settings: acute; duration: 72 hours; other

SMILES: Nc1ccc(O)c(Cl)c1 [3-Chloro-4-hydroxyaniline]
- LOAEL (Rattus norvegicus): 10 mg/kg-day

SMILES: CC(C)OC(=O)Nc1cccc(Cl)c1 [Chlorpropham]
- LD50 (Apis mellifera; dermal): 96.1 µg/piece
- LD50 (Apis mellifera; oral, unspecified): 505 µg/piece
- NOAEL (Canidae; acute, oral, Beagle, mobility): 50 mg/kg-day
- NOAEL (Canidae; chronic, duration: 60 weeks, oral, diet, Beagle, organ weight): 5 mg/kg-day
- NOAEL (Canidae; short-term, duration: 28 days, Dog Other): 5 mg/kg-day
- NOAEL (Colinus virginianus): 94.7 mg/kg-day
- LD50 (Coturnix japonica): > 2000 mg/kg-day
- NOEC (Danio rerio): 0.32 mg/L
- NOEC (Folsomia candida): 17.2 mg/kg
- NOEC (Pontoscolex corethrurus; growth): 30 mg/kg
- LD50 (Rattus norvegicus; acute, oral, mortality): 4200 mg/kg-day
- NOAEL (Rattus norvegicus; body weight): 50 mg/kg-day
- NOAEL (Rattus norvegicus; immunology): 44.5 mg/kg-day

SMILES: Nc1cccc(Cl)c1 [3-Chloroaniline]
- NOEC (Folsomia candida): 9.5 mg/kg
- NOEC (Hypoaspis aculeifer): 50 mg/kg
- NOEC (Pleurozium sp.): 1 mg/L
- NOEC (Pontoscolex corethrurus; reproduction): 125 mg/kg
- LOAEL (Rattus norvegicus): 10 mg/kg-day

Reference: EPA's ToxValDB 9.5 (doi:10.2903/j.efsa.2017.4903)
